DBAASP
≈ marks a conversion by molar mass, not a printed value. One block for each compound: values may come before it.

Experiments:
Assay in all cases: ≥ marks a high value that may be exact or a test limit, other limits are often not marked, values filed in µg/mL are converted to µM
Pseudomonas aeruginosa = test system: Pseudomonas aeruginosa
Escherichia coli B = test system: Escherichia coli B
Bacillus subtilis 168 = test system: Bacillus subtilis 168
Staphylococcus aureus 1 = test system: Staphylococcus aureus 1
[1] = test system: Candida albicans F7-39/IDE99
[2] = test system: Pseudomonas aeruginosa ATCC 27853
[3] = test system: Staphylococcus epidermidis
Staphylococcus aureus = test system: Staphylococcus aureus
[4] = test system: Micrococcus luteus CCM 144
[5] = test system: Staphylococcus aureus ATCC 43300
[6] = test system: Fusarium graminearum PH-1
[7] = test system: Klebsiella pneumoniae ATCC 700603
[8] = test system: Pseudomonas aeruginosa ATCC 10145
[9] = test system: Staphylococcus aureus ATCC 25923
Escherichia coli MG1655 = test system: Escherichia coli MG1655
[10] = test system: Cronobacter sakazakii ATCC BAA-894
[11] = test system: Cronobacter sakazakii DPC 6440
[12] = test system: Staphylococcus aureus NCTC 8325-4
[13] = test system: Salmonella enterica subsp. enterica serovar Typhimurium LT2
[14] = test system: Staphylococcus aureus RF122
[15] = test system: Staphylococcus aureus Newman
[16] = test system: Staphylococcus aureus RN4220
[17] = test system: Cronobacter sakazakii DSM 4485
[18] = test system: Cronobacter muytjensii ATCC 51329
[19] = test system: Pseudomonas fluorescens NCIMB 9046
[20] = test system: Klebsiella pneumoniae NCIMB 13218
[21] = test system: Staphylococcus aureus SA113
[22] = test system: Escherichia coli NCIMB 11843
[23] = test system: Micrococcus luteus ATCC 10240
Escherichia coli BL21AI = test system: Escherichia coli BL21AI

- MIC (Pseudomonas aeruginosa): 8.5 µM (≈ 15.2 µg/mL)
- MIC (Escherichia coli B): 18 µM (≈ 32.3 µg/mL)
- MIC (Bacillus subtilis 168): 7 µM (≈ 12.6 µg/mL)
- MIC (Staphylococcus aureus 1): 5.9 µM (≈ 10.6 µg/mL)
- MIC [1]: ≥ 45 µM
- MIC [2]: 4.5 µM (≈ 8.07 µg/mL)
- MIC [3]: 1.8 µM (≈ 3.23 µg/mL)
- MIC (Staphylococcus aureus): 10 µM (≈ 17.9 µg/mL)
- MIC [4]: 3 µM (≈ 5.38 µg/mL)
- MIC [5]: 23 µM (≈ 41.2 µg/mL)
SMILES: CC[C@H](C)[C@H](NC(=O)CN)C(=O)N[C@@H](CC(C)C)C(=O)N[C@@H](CO)C(=O)N[C@@H](CCCCN)C(=O)N[C@@H](CC(C)C)C(=O)N[C@@H](CC(C)C)C(=O)N[C@@H](CCCCN)C(=O)N[C@@H](CCCCN)C(=O)N[C@@H](CC(C)C)C(=O)N[C@@H](CCCCN)C(=O)N[C@@H](CCCCN)C(=O)N[C@H](C(=O)N[C@H](C(=O)N[C@@H](C)C(=O)N[C@@H](CCCCN)C(N)=O)[C@@H](C)CC)[C@@H](C)CC [GILSKLLKKLKKIIAK]

- MIC (Pseudomonas aeruginosa): 21 µM (≈ 38.3 µg/mL)
- MIC (Escherichia coli B): 4 µM (≈ 7.3 µg/mL)
- MIC (Bacillus subtilis 168): 7 µM (≈ 12.8 µg/mL)
- MIC (Staphylococcus aureus 1): 2.6 µM (≈ 4.75 µg/mL)
- MIC [1]: 16 µM (≈ 29.2 µg/mL)
- MIC [2]: 8 µM (≈ 14.6 µg/mL)
- MIC [3]: 1.6 µM (≈ 2.92 µg/mL)
- MIC (Staphylococcus aureus): 4 µM (≈ 7.3 µg/mL)
- MIC [4]: 3 µM (≈ 5.48 µg/mL)
- MIC [5]: 8 µM (≈ 14.6 µg/mL)
SMILES: CC[C@H](C)[C@H](NC(=O)CN)C(=O)N[C@@H](CC(C)C)C(=O)N[C@@H](CO)C(=O)N[C@@H](CO)C(=O)N[C@@H](CC(C)C)C(=O)N[C@@H](CC(C)C)C(=O)N[C@@H](CCCCN)C(=O)N[C@@H](CCCCN)C(=O)N[C@@H](CC(C)C)C(=O)N[C@@H](CCCCN)C(=O)N[C@@H](CCCCN)C(=O)N[C@@H](Cc1c[nH]c2ccccc12)C(=O)N[C@H](C(=O)N[C@@H](C)C(=O)N[C@@H](CCCCN)C(N)=O)[C@@H](C)CC [GILSSLLKKLKKWIAK]

- MIC (Pseudomonas aeruginosa): 7.4 µM (≈ 13.2 µg/mL)
- MIC (Escherichia coli B): 9 µM (≈ 16.1 µg/mL)
- MIC (Bacillus subtilis 168): 7 µM (≈ 12.5 µg/mL)
- MIC (Staphylococcus aureus 1): 7.6 µM (≈ 13.6 µg/mL)
- MIC [1]: 5.2 µM (≈ 9.3 µg/mL)
- MIC [2]: 5 µM (≈ 8.94 µg/mL)
- MIC [3]: 1.9 µM (≈ 3.4 µg/mL)
- MIC (Staphylococcus aureus): 23 µM (≈ 41.1 µg/mL)
- MIC [4]: 3 µM (≈ 5.37 µg/mL)
- MIC [5]: 32 µM (≈ 57.2 µg/mL)
SMILES: CC[C@H](C)[C@H](NC(=O)CN)C(=O)N[C@@H](CCSC)C(=O)N[C@@H](CO)C(=O)N[C@@H](CO)C(=O)N[C@@H](CC(C)C)C(=O)N[C@@H](CCSC)C(=O)N[C@@H](CCCCN)C(=O)N[C@@H](CCCCN)C(=O)N[C@@H](CC(C)C)C(=O)N[C@@H](CCCCN)C(=O)N[C@@H](CCCCN)C(=O)N[C@H](C(=O)N[C@H](C(=O)N[C@@H](C)C(=O)N[C@@H](CCCCN)C(N)=O)[C@@H](C)CC)[C@@H](C)CC [GIMSSLMKKLKKIIAK]

- MIC [6]: ≥ 192 µM
SMILES: NCC(=O)N[C@@H](CCCN=C(N)N)C(=O)N[C@H]1CSSC[C@@H](C(=O)O)NC(=O)[C@H](CCCN=C(N)N)NC(=O)[C@H](Cc2ccccc2)NC(=O)[C@H](CC(=O)O)NC(=O)[C@H](CC(=O)O)NC(=O)[C@H](CCCN=C(N)N)NC1=O [GRCRDDFRC]

- MIC [6]: 6 µM (≈ 7.59 µg/mL)
SMILES: NCC(=O)N[C@@H](CCCN=C(N)N)C(=O)N[C@H]1CSSC[C@@H](C(=O)O)NC(=O)[C@H](CCCN=C(N)N)NC(=O)[C@H](CCCN=C(N)N)NC(=O)[C@H](CCCN=C(N)N)NC(=O)[C@H](Cc2ccccc2)NC(=O)CNC(=O)[C@H](CCCN=C(N)N)NC1=O [GRCRGFRRRC]

- MIC [7]: > 15 µM
- MIC [8]: 15 µM (≈ 39.8 µg/mL)
- MIC [9]: 15 µM (≈ 39.8 µg/mL)
- MIC (Escherichia coli MG1655): 15 µM (≈ 39.8 µg/mL)
SMILES: CC(C)C[C@H](NC(=O)[C@H](Cc1c[nH]c2ccccc12)NC(=O)[C@H](Cc1cnc[nH]1)NC(=O)[C@H](CCCCN)NC(=O)[C@H](CC(C)C)NC(=O)[C@H](C)NC(=O)[C@H](CC(C)C)NC(=O)[C@H](CCCCN)NC(=O)CNC(=O)[C@@H](NC(=O)[C@@H](NC(=O)[C@H](CCCCN)NC(=O)[C@@H](NC(=O)[C@H](CCC(=O)O)NC(=O)[C@H](C)NC(=O)[C@H](CCCCN)NC(=O)[C@H](CCCCN)NC(=O)[C@H](CC(C)C)NC(=O)[C@H](CC(C)C)NC(=O)[C@@H](NC(=O)[C@H](CCCN=C(N)N)NC(=O)[C@H](Cc1ccc(O)cc1)NC(=O)CN)[C@@H](C)O)C(C)C)[C@@H](C)O)C(C)C)C(=O)O [GYRTLLKKAEVKTVGKLALKHWL]

- MIC [10]: ≥ 1250 µM
- MIC [11]: ≥ 625 µM
- MIC [12]: ≥ 1250 µM
- MIC [13]: ≥ 2500 µM
- MIC [14]: ≥ 312 µM
- MIC [15]: ≥ 1250 µM
- MIC [16]: ≥ 312 µM
- MIC [17]: ≥ 1250 µM
- MIC [18]: ≥ 1250 µM
- MIC [19]: ≥ 2500 µM
- MIC [20]: ≥ 1250 µM
- MIC [21]: ≥ 1250 µM
- MIC [22]: ≥ 2500 µM
SMILES: CC[C@H](C)[C@H](N)C(=O)N[C@@H](C)C(=O)N[C@@H](C)C(=O)N[C@@H](C)C(=O)NCC(=O)N[C@@H](CC(C)C)C(=O)N1CCC[C@H]1C(=O)N[C@@H](CCC(N)=O)C(=O)N[C@@H](CCC(=O)O)C(=O)O [IAAAGLPQE]

- MIC [10]: ≥ 2500 µM
- MIC [11]: ≥ 2500 µM
- MIC [12]: ≥ 2500 µM
- MIC [13]: ≥ 2500 µM
- MIC [14]: ≥ 1250 µM
- MIC [15]: ≥ 2500 µM
- MIC [16]: ≥ 1250 µM
- MIC [17]: ≥ 2500 µM
- MIC [18]: ≥ 2500 µM
- MIC [19]: ≥ 2500 µM
- MIC [20]: ≥ 2500 µM
- MIC [21]: ≥ 2500 µM
- MIC [22]: ≥ 2500 µM
SMILES: CC[C@H](C)[C@H](N)C(=O)N[C@@H](Cc1cnc[nH]1)C(=O)N[C@@H](CCC(N)=O)C(=O)NCC(=O)N[C@@H](CC(C)C)C(=O)N1CCC[C@H]1C(=O)N[C@@H](CCC(N)=O)C(=O)N[C@@H](CCC(=O)O)C(=O)O [IHQGLPQE]

- MIC [8]: ≥ 136 µM
SMILES: C[C@H](NC(=O)[C@H](C)NC(=O)[C@H](CCCCN)NC(=O)[C@H](CCCCN)NC(=O)[C@H](C)NC(=O)[C@H](Cc1ccccc1)NC(=O)[C@H](CCCCN)NC(=O)[C@H](CCCCN)NC(=O)[C@H](C)NC(=O)[C@H](Cc1ccccc1)NC(=O)[C@H](CCCCN)NC(=O)[C@H](CCCCN)NC(=O)[C@H](C)NC(=O)[C@H](Cc1ccccc1)NC(=O)[C@@H](N)CCCCN)C(=O)N[C@@H](CCCCN)C(=O)O [KFAKKFAKKFAKKAAK]

- MIC [6]: ≥ 96 µM
SMILES: C[C@H](NC(=O)CNC(=O)[C@@H](N)CCCN=C(N)N)C(=O)N[C@@H](CCCN=C(N)N)C(=O)N[C@@H](CCCN=C(N)N)C(=O)N[C@@H](CCCN=C(N)N)C(=O)O [RGARRR]

- MIC [23]: 6.94 µM (≈ 16 µg/mL)
- MIC (Escherichia coli BL21AI): 13.9 µM (≈ 32 µg/mL)
SMILES: CC[C@H](C)[C@H](NC(=O)[C@H](CCCN=C(N)N)NC(=O)[C@H](CCCN=C(N)N)NC(=O)[C@@H]1CCCN1C(=O)[C@@H]1CCCN1C(=O)[C@H](CCCN=C(N)N)NC(=O)[C@@H]1CCCN1C(=O)[C@H](CCCN=C(N)N)NC(=O)[C@@H]1CCCN1C(=O)[C@H](CC(C)C)NC(=O)[C@H](Cc1ccc(O)cc1)NC(=O)[C@@H]1CCCN1C(=O)[C@@H]1CCCN1C(=O)[C@H](CCCCN)NC(=O)[C@H](CC(=O)O)NC(=O)[C@@H](N)C(C)C)C(=O)N[C@@H](Cc1ccc(O)cc1)C(=O)N[C@@H](CC(N)=O)C(=O)N[C@@H](C)C(N)=O [VDKPPYLPRPRPPRRIYNA]

- MIC [10]: ≥ 2500 µM
- MIC [11]: ≥ 2500 µM
- MIC [12]: ≥ 2500 µM
- MIC [13]: ≥ 2500 µM
- MIC [14]: ≥ 2500 µM
- MIC [15]: ≥ 2500 µM
- MIC [16]: ≥ 2500 µM
- MIC [17]: ≥ 2500 µM
- MIC [18]: ≥ 2500 µM
- MIC [19]: ≥ 2500 µM
- MIC [20]: ≥ 2500 µM
- MIC [21]: ≥ 2500 µM
- MIC [22]: ≥ 2500 µM
SMILES: CC(C)C[C@H](NC(=O)[C@H](CC(C)C)NC(=O)[C@H](CC(N)=O)NC(=O)[C@H](CC(=O)O)NC(=O)[C@H](CC(N)=O)NC(=O)[C@H](CC(C)C)NC(=O)[C@@H](N)C(C)C)C(=O)N[C@@H](CCCN=C(N)N)C(=O)O [VLNDNLLR]
